The test system of test [1] is P. falciparum sphingomyelin synthase. The test is described as follows: Inhibition of plasmodial sphingomyelin biosynthesis in intact infected erythrocytes (C6-NBD-ceramide to C6-NBD-sphingomyelin). The class given is cell-based, Plasmodium falciparum. Particulars: for effect on sphingomyelin synthase enzyme activity: 5 μM compound (Example 3); for [%] inhibition of sphingomyelin biosynthetic activity: 5 μM compound. On the procedure: 1×10^8 infected cells 24 h after invasion were washed serum-free in RPMI 1640 and preincubated for thirty min at 37° C. in 1 ml of RPMI 1640 containing 0-5 μM or 0-500 μM of PPMP. (C6-NBD-ceramide (N-[7-(4-nitrobenzo-2-oxa-1,3-diazide)]-6-aminocaproyl-D-erythro-sphingosine) was added to each sample at a final concentration of 5 μM, the samples further incubated for 30 min at 37° C. and cellular lipids extracted. C6-NBD-sphingomyelin was resolved by TLC and quantitated by fluorescence spectrophotometry as described previously. Bligh, E. G. and Dyer, W. Y. (1959) A rapid method for total lipid extraction and purification., Can. J. Biochem. Physiol. 37: 911-917. Haldar, K., Uyetake, L., Ahori, N., Elmendorf, H. G. and Lu, W-1. (1991) The accumulation and metabolism of a fluorescent ceramide derivative in Plasmodium falciparum-infected erythrocytes., Mo. Biochem. Parasitol. 49: 143-156. Elmendorf, H. G. and Haldar, K. (1994) Plasmodium falciparum exports the Golgi marker sphingomyelin synthase into a tubovesicular network in the cytoplasm of mature erythrocytes., J. Cell Biol. 124: 449-462. Each value obtained represented the mean of triplicate determinations from five experiments. The arrow bars indicate the standard deviations. The results are depicted in FIG. 1.
(§1) P. falciparum strain FCB was used for all experiments and cultured in vitro in according to a modification of the method of Trager and Jensen left off. Trager, W. and Jensen, J. B. (1976) Human malaria in continuous culture., Science (Wash. D.C.) 193: 673-675 Haldar, K., Ferguson, M. A. J. and Cross, G. A. M. (1985) Acylation of a Plasmodium falciparum merozoite surface antigen via sn-1, 2-diacyl glycerol. J. Biol. Chem. 260; 4969-4974 The culture medium contained RPMI 1640 supplemented with 25 Mm hepes, Ph 7.4/[…]/92 μM hypoxanthine/0.18% sodium bicarbonate/25 μM gentamicin and 10% AB^+ human sera. The parasites were grown in A^+ erythrocytes at 2.5-5% hematocrit. Parasite cultures were synchronized by separation of the early and late stages on a Percoll gradient. The subsequent reincubation of these stages in culture were used to obtain cells 12-24h in the life cycle. Inhibition of sphingomyelin biosynthetic activity using 5 μM of the various compounds was carried out as described in Example 1. 5 μM of the various compounds were added to 0-12 h rings in the culture medium and cells were examined by Giemsa staining after 24 h.

The subject of the next test is P. falciparum strain FCB. The test is described as follows: Inhibition of intraerythrocytic growth in culture (Giemsa staining after 24 h). The class given is cell-based, Plasmodium falciparum. Conditions: 5 μM compound added to 0-12 h rings.
Excerpt: as §1

For another test, the system named is protein synthesis. In words: Effect on protein synthesis. The class given is cell-based.
A further test has as its system DNA synthesis. In words: Effect on DNA synthesis. The class given is cell-based.
The next test concerns P. falciparum schizonts. In words: Schizont maturation, merozoite invasion and ring viability in the presence of drug. Particulars: for fate of schizonts greater than 40 h in the cycle: in the presence of 5 μM drug. The class given is cell-based, Plasmodium falciparum.
For test [2], the system named is tubovesicular membrane reticulum (TVM) of P. falciparum-infected erythrocytes. In words: Tubovesicular membrane (TVM) morphology by confocal microscopy with C5-DMB-ceramide. The class given is cell-based, Plasmodium falciparum. Particulars: 5 μM PPMP; C5 DMB-ceramide staining; 240 optical sections, 20 cells. The protocol:
Schizont-stage parasites isolated over Percoll were allowed to invade in the presence of RPMI 1640 containing 10% human serum or in the presence of RPMI 1640 containing 10% human serum and 5 μM PPMP. 1×10^8 infected erythrocytes of the appropriate stage were incubated in 1 ml of RPMI 1640 supplemented with 2 mg/ml defatted BSA and 20 μM C5 -DMB-ceramide. Cells were washed and fixed as described in Example 5. Sequential micrographs were taken on a custom made laser confocal microscope at 400 nm intervals along the Z axis. Raw data were processed as described previously.

Test [3] has as its system P. falciparum sphingomyelin synthase. The test is described as follows: Inhibition of sphingomyelin biosynthesis in hypotonically lysed infected erythrocytes and fractions. It counts as biochemical, Plasmodium falciparum. The protocol:
Cells were washed serum-free in PBS and intact cells were incubated in PBS. Cells were lysed in 10 volumes of hypotonic buffer. Pellets and supernatants were separated by centrifugation at 10^4 ×G for 10 min at 4° C. Inhibition of sphingomyelin biosynthetic activity was carried out as described in Example 1. Glutamate dehydrogenase, a parasite cytosolic activity, was assayed using 10 μM alpha-ketoglutarate and 0.1 μM NADPH for 1 h at 37° C. by measuring the absorption at 340 nm in a spectrophotometer. The following table indicates the results

For another test, the system named is P. falciparum. The test is described as follows: Intraerythrocytic development in long term culture, parasitemia over consecutive cycles. It counts as cell-based, Plasmodium falciparum. On the procedure: Synchronized cultures 12 h after invasion were subjected to different concentrations of PPMP. Parasitemias of drug-treated cultures were determined at various time points during two intraerythrocytic cycles and compared to cells grown in the absence of drug.
The effect of the single lipid analogs to inhibit parasite development in long term culture in consecutive cycles of the parasite growth were investigated. The studies were initiated with synchronized, young rings (0-12 h) at 10% parasitemia. In order to ensure healthy growth of the malaria parasite in vitro, the parasitemias of the cultures are not allowed to exceed 10%. Yet under normal conditions a 3-6 fold increase in parasitemias is detected with each round of invasion: thus for each new cycle, the cultures were diluted 4-fold into fresh erythrocytes in the absence or presence of the drug. […] The lowest effective, killing concentration of PDMP over three cycles of growth is 1.0 μM.

Results on eight compounds are retold here after patent US5976781A, “Determining plasmodium in blood by sphingomyelin synthase activity” (The Board of Trustees of the Leland Stanford Junior …, priority 1995, dated 1999).

With `CCCCCCCCCCCCCCC[C@H](O)[C@@H](N)CO` (racemic) [dl-dihydrosphingosine], the “effect on sphingomyelin synthase enzyme activity” value in test [1] was “no effect”. Moreover, in test [1] (infected erythrocytes), the “[%] inhibition of sphingomyelin biosynthetic activity” value is listed as 4%. The “[%] inhibition of growth” value with P. falciparum strain FCB was 8%.

As to `CCCCCCCCCC(=O)N[C@H](CN1CCOCC1)[C@H](O)c1ccccc1` (relative stereo) [PDMP, dl-threo-1-phenyl-2-decanoylamino-3-morpholino-1-propanol], the “inhibition of protein synthesis” value in the test on protein synthesis is “not inhibitory”. For the same compound, the “inhibition of DNA synthesis” value with DNA synthesis was “not inhibitory”. Besides, the “[%] inhibition of sphingomyelin biosynthetic activity” value in test [1] (infected erythrocytes) is 31%. Moreover, the “fate of schizonts greater than 40 h in the cycle” value in the test with P. falciparum schizonts is “mature and rupture”.

`CCCCCCCCCCCCCCCC(=O)N[C@H](CN1CCOCC1)[C@H](O)c1ccccc1` (relative stereo) [PPMP, dl-threo-1-phenyl-2-palmitoylamino-3-morpholino-1-propanol]: the “TVM morphology of rings formed in the presence of drug” value in test [2] is reported as “markedly devoid of tubular connections”. For the same compound, the “[%] inhibition of sphingomyelin biosynthetic activity” value in test [1] (infected erythrocytes) is recorded as 36%. For the same compound, in test [1] (500 μM PPMP, infected erythrocytes), the “total cellular sphingomyelin synthase activity inhibited” value is 80-90%. Further, the “change of sphingomyelin synthase activity” value in test [1] (0.05-0.5 μM PPMP, infected erythrocytes) is given as “initial, rapid decrease”. For the same compound, in test [1] (1-5 μM PPMP, infected erythrocytes), the “average inhibition of sphingomyelin synthase activity” value turned out to be 35%. The “concentration at which the sensitive pool of sphingomyelin synthase activity is completely inhibited” value in test [1] (infected erythrocytes) lay in the range of 1 to 5 µM. Besides, the “inhibition of sphingomyelin biosynthesis at 5 μM PPMP [%]” value is 35% in test [1] (intact cells, 5 μM PPMP); 33% in test [3] (hypotonic lysates); 30% in test [3] (pellet of lysate (10^4 xG)); 3% in test [3] (supernatant of lysate (10^4 xG)). Also, the “effect on schizont maturation or merozoite invasion into erythrocytes” value in the test with P. falciparum schizonts (5 μM PPMP) is reported as “not to block”. In addition, the “fate of schizonts greater than 40 h in the cycle” value in the test with P. falciparum schizonts was “mature and rupture”. Moreover, the “development of rings after being washed free of the drug” value in the test with P. falciparum schizonts (rings formed in 5 μM PPMP) was “developed normally”. Besides, the “effect on development of trophozoite stage parasites” value with P. falciparum was “blocks”. For the same compound, the “relative efficacy in long term growth inhibition” value in the test with P. falciparum was “more effective than PDMP”. Besides, the “effect on rings in their first cycle growth” value in the test on P. falciparum (5 μM drug) is given as “completely inhibits”. Besides, in the test on P. falciparum (concentrations as low as 0.05 μM), the “development through the first cycle” value is given as “do not stop development through the first cycle”.

Consider `CCCCCCCCCC(=O)N[C@@H](CN1CCOCC1)[C@H](O)c1ccccc1` (relative stereo) [dl-erythro-PDMP], for which the “effect on sphingomyelin synthase enzyme activity” value in test [1] was “no effect”. Moreover, the “[%] inhibition of sphingomyelin biosynthetic activity” value in test [1] (infected erythrocytes) is listed as 3%.

Consider `CCN(CC)CCO[C@H]1CC[C@@]2(C)C(=CC[C@@H]3[C@@H]2CC[C@]2(C)C(=O)CC[C@@H]32)C1` [U 18666 A], for which, in test [1], the “effect on sphingomyelin synthase enzyme activity” value is given as “no effect”. Further, in test [1] (infected erythrocytes), the “[%] inhibition of sphingomyelin biosynthetic activity” value is 0%.

As for `CN(C)CCCN1c2ccccc2CCc2ccccc21` [imipramine], the “effect on sphingomyelin synthase enzyme activity” value in test [1] was “no effect”. Moreover, in test [1] (infected erythrocytes), the “[%] inhibition of sphingomyelin biosynthetic activity” value came to 0%.

As to `CCCCCCCCCCCCC/C=C/[C@@H](O)[C@@H](N)CO` [sphingosine], in test [1], the “effect on sphingomyelin synthase enzyme activity” value is reported as “no effect”. For the same compound, the “[%] inhibition of sphingomyelin biosynthetic activity” value in test [1] (infected erythrocytes) is 0%.

On to `CCCCCCCCCCCCCCCCCCN` [stearylamine], for which the “effect on sphingomyelin synthase enzyme activity” value in test [1] is recorded as “no effect”. For the same compound, in test [1] (infected erythrocytes), the “[%] inhibition of sphingomyelin biosynthetic activity” value is recorded as 0%.
